# Values quoted from earlier work, collected in US20110305778A1, “Chemically Stabilized Anti-Dandruff Compositions For Use In Personal Care Compositions” (priority 2010, published 2011).
# Conditions: value in parenthesis after each coordinating compound; no method given
row,SMILES,Log Zn Binding Constant
1,CC(=O)O [Acetic Acid],1.0
2,O=C(O)CCCCC(=O)O [Adipic Acid],2.6
3,N=C(N)NCCC[C@H](N)C(=O)O [Arginine],4.2
4,N[C@@H](CC(=O)O)C(=O)O [Aspartic Acid],5.9
5,OB(O)O [Boric Acid],0.9
6,O=C(O)O [Carbonic Acid],3.9
7,Cl [Chloride],−0.3
8,O=C(O)CC(O)(CC(=O)O)C(=O)O [Citric Acid],4.8
9,N[C@@H](CS)C(=O)O [Cysteine],9.1
10,N[C@@H](CSSC[C@H](N)C(=O)O)C(=O)O [Cystine],6.7
11,O=C(O)CNCCNCC(=O)O [EDDA],11.1
12,O=C(O)C[C@H](NCCN[C@@H](CC(=O)O)C(=O)O)C(=O)O [EDDS],13.5
13,O=C(O)CN(CCN(CC(=O)O)CC(=O)O)CC(=O)O [EDTA],16.5
14,O=CO [Formic Acid],0.6
15,N[C@@H](CCC(=O)O)C(=O)O [Glutamic Acid],4.5
16,NCC(=O)O [Glycine],5.0
17,O=C(O)CO [Glycolic Acid],2.0
18,CC(O)C(=O)O (stereo not shown) [Lactic Acid],1.9
19,O=C(O)CC(O)C(=O)O (stereo not shown) [Malic Acid],2.9
20,O=C(O)CC(=O)O [Malonic Acid],2.9
21,CSCC[C@H](N)C(=O)O [Methionine],4.4
22,O=C(O)CN(CC(=O)O)CC(=O)O [NTA],10.7
23,O=P(O)(O)O [Phosphoric Acid],2.4
24,O=C(O)c1ccccc1C(=O)O [Phthalic Acid],2.2
25,O=C(O)CCC(=O)O [Succinic Acid],1.8
26,O=S(=O)(O)O [Sulfuric Acid],0.9
27,O=C(O)C(O)C(=O)O [Tatronic Acid],3.2
28,Cc1cc(C2(c3cc(C)c(O)c(CN(CC(=O)O)CC(=O)O)c3)OS(=O)(=O)c3ccccc32)cc(CN(CC(=O)O)CC(=O)O)c1O [Xylenol Orange],10.3
